Laboratory results taken from PubChem BioAssay AID2842 (Southern Research Institute, 2010).
Converted amounts (≈) assume the structure as drawn.

tested on: M. tuberculosis H37Rv growth inhibition; test: Mycobacterium tuberculosis H37Rv growth inhibition, putative kinase inhibitor library, confirmatory dose response (AID 2842);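 note: bacteria incubated one week before Alamar blue readout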

Row | SMILES | IC90
1 | CSc1cccc(-c2nnc(NC(=O)c3cc([N+](=O)[O-])ccc3Cl)o2)c1 | 0.88 µg/mL (≈ 2.25 µM)
2 | NC(=O)C1CCN(C2=NC(=O)/C(=C\c3ccc(Cl)cc3Cl)S2)CC1 | < 0.2 µg/mL
3 | O=C(Nc1nnc(-c2ccc3c(c2)OCCO3)o1)c1nc2ccccc2s1 | 25.8 µg/mL (≈ 67.9 µM)
4 | COc1cccc(OCCN2CCN(c3cc(C)nc4c(-c5ccccc5)cnn34)CC2)c1 | 12 µg/mL (≈ 27 µM)
5 | CCSc1ccc(CC(=O)Nc2nnc(-c3ccc4c(c3)OCCO4)o2)cc1 | 3.57 µg/mL (≈ 8.98 µM)
6 | O=C(Nc1nnc(-c2ccc(F)cc2)o1)c1ccc2c(c1)CCCC2 | 8.65 µg/mL (≈ 25.6 µM)
7 | CSc1cccc(-c2nnc(NC(=O)c3ccc([N+](=O)[O-])s3)o2)c1 | 1.58 µg/mL (≈ 4.36 µM)
8 | Cc1ccc(-c2nnc(NC(=O)c3ccccc3[N+](=O)[O-])o2)c(C)c1 | 15.7 µg/mL (≈ 46.5 µM)
9 | COC(=O)c1c(NC(=O)c2ccccc2Oc2ccccc2)sc2c1CC(C)(C)NC2(C)C | 37.1 µg/mL (≈ 79.8 µM)
10 | COc1cccc2sc(Nc3nnc(-c4ccccc4)o3)nc12 | 6.08 µg/mL (≈ 18.7 µM)
11 | O=C(Nc1nc(-c2ccc3c(c2)OCCO3)cs1)C1CCCCC1 | 11.7 µg/mL (≈ 34 µM)
12 | COc1ccc(C(=O)Oc2cccc(Nc3ncnc4ccccc34)c2)cc1 | 15.1 µg/mL (≈ 40.5 µM)
13 | CSc1cccc2sc(Nc3ccc(Cl)cc3)nc12 | 2.31 µg/mL (≈ 7.53 µM)
14 | O=C(N=Nc1c(O)[nH]c2ccccc12)c1cc(-c2cccc(OCc3ccccc3)c2)n[nH]1 | 20.2 µg/mL (≈ 46.2 µM)
15 | COc1ccc(OC)c(Nc2nc(NCCN(C)C)nc3c2cnn3-c2ccccc2)c1 | 7.29 µg/mL (≈ 16.8 µM)
16 | N=c1sc(/C=C2\C=Nc3ccccc32)c(O)n1-c1nccs1 | < 0.2 µg/mL
17 | CCC(=O)Nc1nnc(-c2ccc(C)cc2C)o1 | < 0.2 µg/mL
18 | CCOC(=O)Cn1c(=NC(=O)c2ccc([N+](=O)[O-])s2)sc2cc(S(C)(=O)=O)ccc21 | 21.8 µg/mL (≈ 46.5 µM)
19 | O=C(Nc1nnc(C2=COCCO2)o1)c1ccc2c(c1)CCCC2 | 0.44 µg/mL (≈ 1.34 µM)
20 | COc1ccc(-c2ccc(C3C(C#N)=C(N)Oc4n[nH]c(C)c43)o2)cc1 (stereo not drawn) | 4.92 µg/mL (≈ 14.1 µM)

Row | SMILES | IC90
21 | NC(=O)c1oc2ccccc2c1NC(=O)C1CC(=O)N(c2ccc(Cl)cc2)C1 (stereo not drawn) | 3.15 µg/mL (≈ 7.92 µM)
22 | O=C(c1cccs1)N(CCCn1ccnc1)c1nc2ccc(F)cc2s1 | 3.01 µg/mL (≈ 7.79 µM)
23 | COc1cccc(-c2nnc(NC(=O)c3ccc4c(c3)CCCC4)o2)c1 | 5.48 µg/mL (≈ 15.7 µM)
24 | Cc1ccc2sc(NNC(=O)c3cccs3)nc2c1C | 23.2 µg/mL (≈ 76.4 µM)
25 | CC(C)(C)c1ccc(C(=O)Nc2nnc(-c3ccncc3)o2)cc1 | 1.18 µg/mL (≈ 3.66 µM)
26 | O=C(Nc1nnc(-c2ccccn2)o1)c1cccc(F)c1 | 3.47 µg/mL (≈ 12.2 µM)
27 | COc1ccccc1Cn1cc2c(-c3ccc(F)cc3)nnc-2c2cc(C)ccc21 | 49.2 µg/mL (≈ 124 µM)
28 | Cc1cc(C)c2nc(NNC(=O)c3ccc(N(C)C)cc3)sc2c1 | 3.23 µg/mL (≈ 9.49 µM)
29 | CC(C)(C)C(=O)Nc1nnc(-c2ccc3c(c2)CCCC3)o1 | 4.73 µg/mL (≈ 15.8 µM)
30 | CC(=O)N1CCc2c(sc(NC(=O)c3ccc(C)c(C)c3)c2C(N)=O)C1 | 3.4 µg/mL (≈ 9.15 µM)
31 | O=C(Cc1ccccc1)Nc1nnc(-c2ccc(Cl)cc2)o1 | 14.1 µg/mL (≈ 44.9 µM)
32 | O=C(Nc1nnc(-c2ccc(F)cc2)o1)c1cccc(Br)c1 | 93.6 µg/mL (≈ 259 µM)
33 | CCOc1cccc2sc(Nc3nc4ccc(OC)cc4s3)nc12 | 3.19 µg/mL (≈ 8.92 µM)
34 | COc1cc(OC)cc(-c2nnc(NC(=O)c3ccc([N+](=O)[O-])o3)o2)c1 | 9.08 µg/mL (≈ 25.2 µM)
35 | Cc1cc(NC(=O)CSc2nnc(-c3ccncc3)o2)no1 | 7.04 µg/mL (≈ 22.2 µM)
36 | Cc1cn2c3c(=O)[nH]c(=O)n(C)c3nc2n1CCCN(C)Cc1ccccc1 | 2.62 µg/mL (≈ 6.89 µM)
37 | O=C(Nc1nccs1)c1ccc2c(c1)CCCC2 | 3.85 µg/mL (≈ 14.9 µM)
38 | CC(=O)c1ccc(C(=O)Nc2nnc(-c3cc(Cl)ccc3Cl)o2)cc1 | 94.4 µg/mL (≈ 251 µM)
39 | O=C(Nc1nnc(-c2cccs2)o1)c1cccc(C(F)(F)F)c1 | 3.48 µg/mL (≈ 10.3 µM)
40 | Oc1ccc(Nc2nc(NCc3ccccc3)c3ccccc3n2)cc1 | 2.59 µg/mL (≈ 7.56 µM)

Row | SMILES | IC90
41 | COc1ccc2nc(Nc3ccc4nc(C)sc4c3)sc2c1 | 15.2 µg/mL (≈ 46.5 µM)
42 | CCOc1cc(-c2nnc(NC(=O)c3cccs3)o2)cc(OCC)c1OCC | 3.02 µg/mL (≈ 7.49 µM)
43 | Cc1n[nH]c(=O)nc1N/N=C/c1cccc(OCc2ccccc2Cl)c1 | 35.9 µg/mL (≈ 97.2 µM)
44 | COc1ccc(C(=O)Nc2nnc(C3=COCCO3)o2)cc1 | 3.3 µg/mL (≈ 10.9 µM)
45 | COc1cccc(C(=O)Nc2nnc(-c3ccc(Cl)cc3)o2)c1 | < 0.2 µg/mL
46 | Cc1ccc(C)c(-c2nnc(NC(=O)c3cc([N+](=O)[O-])ccc3Cl)o2)c1 | < 0.2 µg/mL
47 | Cn1c(=O)c2c(nc(SCC(=O)c3ccccc3)n2Cc2ccc(F)cc2)n(C)c1=O | 31.8 µg/mL (≈ 72.4 µM)
48 | O=C(Nc1cccc(C(F)(F)F)c1)NC1CC(=O)N(c2cccc(F)c2)C1 (stereo not drawn) | 8.52 µg/mL (≈ 22.3 µM)
49 | CC(C)N1CCc2c(sc(NC(=O)c3ccc([N+](=O)[O-])s3)c2C(N)=O)C1 | 6.33 µg/mL (≈ 16 µM)
50 | OCCN1CCN(c2ncnc3c2cnn3-c2ccc(Cl)c(Cl)c2)CC1 | 14.9 µg/mL (≈ 38 µM)
51 | O=C(Cc1ccc(-c2ccccc2)cc1)Nc1nnc2n1CCS2 | 13.5 µg/mL (≈ 40.2 µM)
52 | Cc1ccc2sc(NNC(=O)c3coc4ccccc4c3=O)nc2c1C | 34.9 µg/mL (≈ 95.5 µM)
53 | O=C(Nc1nnc(-c2cccs2)o1)c1ccco1 | 3.41 µg/mL (≈ 13.1 µM)
54 | Cc1cccc(C(=O)Nc2nnc(-c3ccccn3)o2)c1 | 19.3 µg/mL (≈ 68.8 µM)
55 | COc1ccccc1-c1nnc(NC(=O)c2ccco2)o1 | 13.4 µg/mL (≈ 46.9 µM)
56 | Oc1ccc(Br)cc1C1CC(c2ccoc2)=NN1 (stereo not drawn) | 25.3 µg/mL (≈ 82.4 µM)
57 | CCOc1cccc2sc(N3CCc4ccccc4C3)nc12 | 15.3 µg/mL (≈ 49.2 µM)
58 | CC(=O)N1CCc2c(sc(NC(=O)c3ccc(-c4ccccc4)cc3)c2C(N)=O)C1 | 20.4 µg/mL (≈ 48.7 µM)
